The NIST ThermoML archive (doi:10.1016/j.jct.2012.06.012)
Numbers after ± are expanded uncertainties.

Experiment: xn = mol fraction of the nth substance listed
Settings: Liquid, Vibrating tube method

CCCCCCCCCC [decane] + CCO
mass density (362.64 K, 11000 kPa, x2 = 0.1011): 686.5 ± 0.38 kg/m3 | mass density (362.64 K, 11000 kPa, x2 = 0.4963): 692.75 ± 0.37 kg/m3 | mass density (362.64 K, 11000 kPa, x2 = 0.9014): 719.95 ± 0.35 kg/m3 | mass density (362.64 K, 12000 kPa, x2 = 0.1011): 687.56 ± 0.4 kg/m3 | mass density (362.64 K, 12000 kPa, x2 = 0.4963): 693.89 ± 0.39 kg/m3 | mass density (362.64 K, 12000 kPa, x2 = 0.9014): 721.13 ± 0.36 kg/m3 | mass density (362.64 K, 13000 kPa, x2 = 0.1011): 688.62 ± 0.41 kg/m3 | mass density (362.64 K, 13000 kPa, x2 = 0.4963): 694.99 ± 0.4 kg/m3 | mass density (362.64 K, 13000 kPa, x2 = 0.9014): 722.28 ± 0.37 kg/m3 | mass density (362.64 K, 14000 kPa, x2 = 0.1011): 689.68 ± 0.43 kg/m3 | mass density (362.64 K, 14000 kPa, x2 = 0.4963): 696.14 ± 0.42 kg/m3 | mass density (362.64 K, 14000 kPa, x2 = 0.9014): 723.43 ± 0.38 kg/m3 | mass density (362.64 K, 15000 kPa, x2 = 0.1011): 690.66 ± 0.44 kg/m3 | mass density (362.64 K, 15000 kPa, x2 = 0.4963): 697.17 ± 0.43 kg/m3 | mass density (362.64 K, 15000 kPa, x2 = 0.9014): 724.55 ± 0.39 kg/m3 | mass density (362.64 K, 16000 kPa, x2 = 0.1011): 691.66 ± 0.45 kg/m3 | mass density (362.64 K, 16000 kPa, x2 = 0.4963): 698.23 ± 0.44 kg/m3 | mass density (362.64 K, 16000 kPa, x2 = 0.9014): 725.65 ± 0.41 kg/m3 | mass density (362.64 K, 17000 kPa, x2 = 0.1011): 692.65 ± 0.47 kg/m3 | mass density (362.64 K, 17000 kPa, x2 = 0.4963): 699.27 ± 0.46 kg/m3 | mass density (362.64 K, 17000 kPa, x2 = 0.9014): 726.75 ± 0.42 kg/m3 | mass density (362.64 K, 18000 kPa, x2 = 0.1011): 693.62 ± 0.48 kg/m3 | mass density (362.64 K, 18000 kPa, x2 = 0.4963): 700.3 ± 0.47 kg/m3 | mass density (362.64 K, 18000 kPa, x2 = 0.9014): 727.82 ± 0.43 kg/m3 | mass density (362.64 K, 19000 kPa, x2 = 0.1011): 694.56 ± 0.5 kg/m3 | mass density (362.64 K, 19000 kPa, x2 = 0.4963): 701.3 ± 0.48 kg/m3 | mass density (362.64 K, 19000 kPa, x2 = 0.9014): 728.87 ± 0.44 kg/m3 | mass density (362.64 K, 20000 kPa, x2 = 0.1011): 695.5 ± 0.51 kg/m3 | mass density (362.64 K, 20000 kPa, x2 = 0.4963): 702.3 ± 0.5 kg/m3 | mass density (362.64 K, 20000 kPa, x2 = 0.9014): 729.9 ± 0.45 kg/m3 | mass density (362.65 K, 1000 kPa, x2 = 0.0937): 675.13 ± 0.23 kg/m3 | mass density (362.65 K, 2000 kPa, x2 = 0.0937): 676.3 ± 0.25 kg/m3 | mass density (362.65 K, 3000 kPa, x2 = 0.0937): 677.46 ± 0.26 kg/m3 | mass density (362.65 K, 4000 kPa, x2 = 0.0937): 678.6 ± 0.28 kg/m3 | mass density (362.65 K, 5000 kPa, x2 = 0.0937): 679.76 ± 0.29 kg/m3 | mass density (362.65 K, 6000 kPa, x2 = 0.0937): 680.91 ± 0.31 kg/m3 | mass density (362.65 K, 7000 kPa, x2 = 0.0937): 682.04 ± 0.32 kg/m3 | mass density (362.65 K, 8000 kPa, x2 = 0.0937): 683.16 ± 0.34 kg/m3 | mass density (362.65 K, 9000 kPa, x2 = 0.0937): 684.25 ± 0.35 kg/m3 | mass density (362.65 K, 10000 kPa, x2 = 0.0937): 685.35 ± 0.37 kg/m3 | mass density (362.65 K, 11000 kPa, x2 = 0.0937): 686.41 ± 0.38 kg/m3 | mass density (362.65 K, 12000 kPa, x2 = 0.0937): 687.48 ± 0.4 kg/m3 | mass density (362.65 K, 13000 kPa, x2 = 0.0937): 688.51 ± 0.41 kg/m3 | mass density (362.65 K, 14000 kPa, x2 = 0.0937): 689.55 ± 0.43 kg/m3 | mass density (362.65 K, 15000 kPa, x2 = 0.0937): 690.57 ± 0.44 kg/m3 | mass density (362.65 K, 16000 kPa, x2 = 0.0937): 691.56 ± 0.45 kg/m3 | mass density (362.65 K, 17000 kPa, x2 = 0.0937): 692.56 ± 0.47 kg/m3 | mass density (362.65 K, 18000 kPa, x2 = 0.0937): 693.53 ± 0.48 kg/m3 | mass density (362.65 K, 19000 kPa, x2 = 0.0937): 694.47 ± 0.5 kg/m3 | mass density (362.65 K, 20000 kPa, x2 = 0.0937): 695.39 ± 0.51 kg/m3 | mass density (362.71 K, 1000 kPa, x2 = 0.7526): 692.67 ± 0.22 kg/m3 | mass density (362.71 K, 2000 kPa, x2 = 0.7526): 693.99 ± 0.24 kg/m3 | mass density (362.71 K, 3000 kPa, x2 = 0.7526): 695.3 ± 0.25 kg/m3 | mass density (362.71 K, 4000 kPa, x2 = 0.7526): 696.58 ± 0.26 kg/m3 | mass density (362.71 K, 5000 kPa, x2 = 0.7526): 697.86 ± 0.28 kg/m3 | mass density (362.71 K, 6000 kPa, x2 = 0.7526): 699.12 ± 0.29 kg/m3 | mass density (362.71 K, 7000 kPa, x2 = 0.7526): 700.37 ± 0.31 kg/m3 | mass density (362.71 K, 8000 kPa, x2 = 0.7526): 701.6 ± 0.32 kg/m3 | mass density (362.71 K, 9000 kPa, x2 = 0.7526): 702.81 ± 0.33 kg/m3 | mass density (362.71 K, 10000 kPa, x2 = 0.7526): 704.01 ± 0.35 kg/m3 | mass density (362.71 K, 11000 kPa, x2 = 0.7526): 705.19 ± 0.36 kg/m3 | mass density (362.71 K, 12000 kPa, x2 = 0.7526): 706.37 ± 0.37 kg/m3 | mass density (362.71 K, 13000 kPa, x2 = 0.7526): 707.51 ± 0.39 kg/m3 | mass density (362.71 K, 14000 kPa, x2 = 0.7526): 708.68 ± 0.4 kg/m3 | mass density (362.71 K, 15000 kPa, x2 = 0.7526): 709.76 ± 0.41 kg/m3 | mass density (362.71 K, 16000 kPa, x2 = 0.7526): 710.84 ± 0.43 kg/m3 | mass density (362.71 K, 17000 kPa, x2 = 0.7526): 711.92 ± 0.44 kg/m3 | mass density (362.71 K, 18000 kPa, x2 = 0.7526): 712.98 ± 0.45 kg/m3 | mass density (362.71 K, 19000 kPa, x2 = 0.7526): 714.02 ± 0.46 kg/m3 | mass density (362.71 K, 20000 kPa, x2 = 0.7526): 715.03 ± 0.48 kg/m3 | mass density (362.8 K, 1000 kPa, x2 = 0.2507): 676.12 ± 0.23 kg/m3 | mass density (362.8 K, 2000 kPa, x2 = 0.2507): 677.34 ± 0.25 kg/m3 | mass density (362.8 K, 3000 kPa, x2 = 0.2507): 678.55 ± 0.26 kg/m3 | mass density (362.8 K, 4000 kPa, x2 = 0.2507): 679.73 ± 0.28 kg/m3 | mass density (362.8 K, 5000 kPa, x2 = 0.2507): 680.92 ± 0.29 kg/m3 | mass density (362.8 K, 6000 kPa, x2 = 0.2507): 682.09 ± 0.31 kg/m3 | mass density (362.8 K, 7000 kPa, x2 = 0.2507): 683.25 ± 0.32 kg/m3 | mass density (362.8 K, 8000 kPa, x2 = 0.2507): 684.4 ± 0.34 kg/m3 | mass density (362.8 K, 9000 kPa, x2 = 0.2507): 685.54 ± 0.35 kg/m3 | mass density (362.8 K, 10000 kPa, x2 = 0.2507): 686.66 ± 0.37 kg/m3 | mass density (362.8 K, 11000 kPa, x2 = 0.2507): 687.77 ± 0.38 kg/m3 | mass density (362.8 K, 12000 kPa, x2 = 0.2507): 688.85 ± 0.39 kg/m3 | mass density (362.8 K, 13000 kPa, x2 = 0.2507): 689.91 ± 0.41 kg/m3 | mass density (362.8 K, 14000 kPa, x2 = 0.2507): 691.02 ± 0.42 kg/m3 | mass density (362.8 K, 15000 kPa, x2 = 0.2507): 692.02 ± 0.44 kg/m3 | mass density (362.8 K, 16000 kPa, x2 = 0.2507): 693.05 ± 0.45 kg/m3 | mass density (362.8 K, 17000 kPa, x2 = 0.2507): 694.06 ± 0.46 kg/m3 | mass density (362.8 K, 18000 kPa, x2 = 0.2507): 695.04 ± 0.48 kg/m3 | mass density (362.8 K, 19000 kPa, x2 = 0.2507): 696.01 ± 0.49 kg/m3 | mass density (362.8 K, 20000 kPa, x2 = 0.2507): 696.96 ± 0.51 kg/m3
